# Measured values: ChEMBL document CHEMBL1121462, “Effect of changing the COOH-terminal amide group present in the hydrophilic cluster of oxytocin to dimethylamide” (1980)
# Columns and labels:
# [1] = species: Rattus norvegicus; assay: Potency by rat antidiuretic assay; assay type: functional, Urine
# [2] = species: Rattus norvegicus; assay: Potency by rat pressor assay; assay type: functional
# [3] = species: Gallus gallus; assay: Potency by avian vasodepressor assay
compound,measurement,setting,value
CC[C@H](C)[C@@H]1NC(=O)[C@H](Cc2ccc(O)cc2)NC(=O)[C@@H](N)CSSC[C@@H](C(=O)N2CCC[C@H]2C(=O)N[C@@H](CC(C)C)C(=O)NCC(=O)N(C)C)NC(=O)[C@H](CC(N)=O)NC(=O)[C@H](CCC(N)=O)NC1=O,Potency,[1],0.096 mg
same,Potency,[2],<0.01 mg
same,Potency,[3],<0.07 mg
